According to paper PMC11362529, “Exploring the neuroprotective potential of Nrf2-pathway activators against annonacin toxicity” (Scientific Reports, 2024):

What was measured:
Assay type in all cases: cell-based, human
[1] = tested on: HO-1; test: HO-1 protein levels by ELISA; conditions: 48 h
Experimental: Protein expression levels of HO-1 were determined by ELISA (enzyme-linked immunosorbent assay) using a commercial kit (#ab207621, Abcam) according to the manufacturer's instructions. For this purpose, cells were seeded onto PLO/FN coated 6-well microplates. After the pharmacological treatments, cells were washed with warm HBSS, trypsinized and pelleted as before, and finally lysed in 100 µl cell extraction buffer PTR provided by the kit. Sample concentration was measured by BCA, as previously mentioned, and 1 µg of total protein extract was loaded into the respective wells. All samples were run in duplicates and the absorbances were measured on a FLUOstar® Omega plate reader at λ 450 nm. For data analysis, we used the MARS software (BMG LabTech). First, we calculated the means of the absorbances for each condition. The mean value of the blank control (i.e., a condition with only sample diluent buffer) was subtracted from the mean values of all standard and experimental conditions. A 4PL-curve fit was plotted on Prism 9 software (GraphPad Software, San Diego, CA, USA), using the blank-corrected mean values of standard conditions. The obtained curve was used to determine the HO-1 protein concentration, followed by multiplication by the dilution factor to obtain the concentration of the target-protein in each sample.

[2] = tested on: LUHMES cells; test: Annonacin titration, calcein viability assay; conditions: 20 nM annonacin, 48 h, glucose-reduced medium
Experimental: Commercial annonacin (Cayman Chemical, Michigan, MI, USA) was diluted in DMSO and stored in small aliquots of 100 µM stock solution at -80 °C. For annonacin titration, LUHMES cells were seeded onto a 48-well microplate and intoxicated on day 6 of differentiation with different concentrations of annonacin, over a period of 48 h, in glucose-reduced differentiation medium of DMEM without glucose (Gibco), supplemented with 2.4 mM glucose, 1% N-2 supplement, 1 µg/ml tetracycline, […] GDNF, and 490 µg/ml dbcAMP to mimic the physiological concentration of glucose in the human brain[44],[45]. Each experimental condition was run in triplicates. Cell viability was measured by calcein viability assay, as detailed below. […]
The calcein AM green dye (Thermo Fisher Scientific) was diluted in DMSO to obtain a 1 mM stock solution. […] Cells were lysed in a 200 µl volume of 1% Triton™ X-100 in PBS (phosphate buffered saline) and the lysate transferred to a 96‐well black plate for the readout. The fluorescence signal was measured on a FLUOstar® Omega plate reader (BMG LabTech, Ortenberg, Germany) at λ Ex/Em = 485/530 nm and data was analyzed with the MARS data analysis software (BMG LabTech). For background correction, we subtracted the background control signal from the measured values of all experimental conditions. […]

[3] = tested on: 3R-tau transcripts; test: 3R-tau mRNA by RT-qPCR; conditions: 20 nM annonacin alone, 48 h, vs control
Experimental: (§1) LUHMES cells were seeded on PLO/FN coated 6-well microplates and the pharmacological treatments were performed as previously explained. The cells were washed in HBSS, prior to being collected for mRNA isolation (RNeasy® Plus Mini Kit, Qiagen, Venlo, Netherlands), following the manufacturer’s instructions. The mRNA concentrations were determined on a Nano-Drop 2000c (Thermo Fisher Scientific) and 1 µg of mRNA was reverse-transcribed into cDNA with the iScript™ Reverse Transcription Supermix for RT-qPCR Kit (Bio-Rad) on a thermal cycler (SensoQuest, Göttingen, Germany). Real-time PCR was performed using SYBR™ Select Master Mix for CFX (Thermo Fisher Scientific) with 30 ng cDNA and 0.4 µM of primers against the respective target genes (Supplementary Table S3), in a 20 µl total volume, on a CFX96 Touch™ Real-Time Cycler (Bio-Rad). The relative expression of mRNA was calculated using the CFX Manager software (ΔΔCt method) from Bio-Rad, and the Ct values of the target-genes were normalized to the reference genes RPL22 and UBQLN1. The data were reported as fold change relative to the control (DMSO-treated) condition.

[4] = tested on: NQO1; test: NQO1 mRNA after siRNA transfection (RT-qPCR); conditions: Nrf2 siRNA transfected cells, annonacin model
Experimental: as §1, with “Real-time PCR was performed using SYBR™ Select Master Mix for CFX (Thermo Fisher Scientific) with 30 ng cDNA and 0.4 µM of primers against the respective target genes (Supplementary Table S3), in a 20 µl total volume, on a CFX96 Touch™ Real-Time Cycler (Bio-Rad).” left out, “The data were reported as fold change relative to the control (DMSO-treated) condition.” left out
LUHMES cells seeded on PLO/FN coated 48-well microplates were left to differentiate for 5 days, before being transfected with 25 nM of NRF2-targeting (gene ID 4780) or negative control siRNA (siTOOLs Biotech, Planegg, Germany), in Opti-MEM + GlutaMax medium (Thermo Fisher Scientific) with 0.4% of lipofectamine RNAiMax. […] Cell viability was determined by calcein assay, after 48 h of treatment, as explained before.

Compound: Cn1c(Nc2nc3ccc(C(F)(F)F)cc3s2)nc2cc(C(=O)NCCOCCO)ccc21 [HPP-D]
- HO-1 protein expression ([1]; absence of annonacin): significantly increased the HO-1 protein expression
- HO-1 protein expression ([1]; presence of 20 nM annonacin): significantly increased the HO-1 protein expression

Compound: CCCCCCCCCCCC[C@@H](O)[C@H]1CC[C@H]([C@H](O)CCCC[C@H](O)CCCCC[C@@H](O)CC2=CC(C)OC2=O)O1 (some centres unmarked) [annonacin]
- cell viability [2]: approximately 50 % of the untreated condition
- 3R-tau transcripts [3]: downregulation of 3R-tau transcripts

Compound: C=CC(C)(C)c1cc(/C=C/C(=O)c2ccc(O)cc2)c(OC)cc1O [licochalcone A]
- NQO1 expression despite Nrf2 knockdown [4]: still led to an induction of NQO1 expression
